# Data taken from PMC8388125, “Kinetic and Structural Characterization of the Self-Labeling Protein Tags HaloTag7, SNAP-tag, and CLIP-tag” (Biochemistry, 2021).
# Assays:
# [1] = target: T1, SNAP-tag (SNAP) (Homo sapiens, UniProt P16455, A127T/A154D/C150Q/C62A/G131K/G132T/G153L/K125A/K32I/L33F/M134L/N157G/Q115S/Q116H/R128A/R135S/S151G/S152D/S159E); assay: SNAP competitive labeling kinetics against BG-Alexa488; type: biochemical; conditions: nonfluorescent substrates, competition with BG-Alexa488
# T1 construct: made in house; host or cells: E. coli BL21(DE3)-pLysS
# T1 sequence (P16455 1-182 K32I/L33F/C62A/Q115S/Q116H/K125A/A127T/R128A/G131K/G132T/M134L/R135S/C150Q/S151G/S152D/G153L/A154D/N157G/S159E limits assumed): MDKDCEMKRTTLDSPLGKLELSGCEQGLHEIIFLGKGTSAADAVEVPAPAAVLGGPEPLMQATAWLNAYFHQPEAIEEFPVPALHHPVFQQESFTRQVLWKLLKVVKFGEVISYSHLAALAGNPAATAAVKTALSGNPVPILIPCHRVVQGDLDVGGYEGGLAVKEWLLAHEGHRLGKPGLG
# Description: Competitive kinetics were measured by recording FP over time using a microplate reader in a manner analogous to that for HT7 competition kinetics described above using 100 nM BG-Alexa488 as the fluorescent substrate in SNAP-FP buffer.
# (§1) Data were fitted to a simplified kinetic competition model (eqs 19 and 20) described by differential eqs 21–25 using DynaFit. The dead time of the measurements and baseline FP value were put in as fixed parameters. Standard deviations (normal distribution verified) and confidence intervals of fitted parameters were estimated with the Monte Carlo method with standard settings (N = 1000, 5% worst fits discarded). [drawing 19] 19 [drawing 20] 20 where P is the SLP protein, S is the fluorescent SLP substrate, I is the nonfluorescent SLP substrate (inhibitor), PS is the protein–fluorescent substrate conjugate, and PI is the protein–nonfluorescent substrate conjugate. [drawing 21] 21 [drawing 22] 22 [drawing 23] 23 [drawing 24] 24 [drawing 25] 25
# [2] = target: T1, SNAP-tag (SNAP); assay: SNAP labeling kinetics via microplate reader (FP over time); type: biochemical; conditions: SNAP, plate reader, kinetic model 1
# Description: Labeling kinetics of SNAP and CLIP substrates were measured by recording FP over time using a microplate reader in a manner analogous to that of HT7 labeling kinetics described above with the following changes. The fluorescent substrate concentration was fixed to 20 nM, and protein concentrations were varied from 15 to 900 nM. Measurements were performed in SNAP-FP buffer.
# Kinetic data from microplate reader assays were fitted to a simplified kinetic model (eq 13) described by differential eqs 14–16 using DynaFit. The dead time of the measurements and baseline FP value were put in as fixed parameters. Standard deviations (normal distribution verified) and confidence intervals of fitted parameters were estimated with the Monte Carlo method with standard settings (N = 1000, 5% worst fits discarded). In the case of BG, CP, and BC kinetics, the substrate concentration was fitted by DynaFit to rule out quantification errors of the BG, CP, or BC fluorophores. Accurate fitting of the concentration was ensured by including conditions under which protein is limiting and no maximum FP value was reached.
# [3] = target: T2, HT7^D106A (Rhodococcus sp., UniProt P59336, A155T/A167V/A224E/C128F/C176G/D106A/D78G/E160K/E257K/G292T/H272N/K175M/K195N/L47V/L88M/N227D/P291S/S2A/S58T/T264A/V172T/Y273L/Y87F); assay: Affinity of HT7^D106A for CA substrates by fluorescence polarization; type: binding
# T2 construct: made in house; host or cells: E. coli BL21(DE3)-pLysS
# T2 sequence (P59336 other isoform, or with tags, fused parts or gaps with the stated changes): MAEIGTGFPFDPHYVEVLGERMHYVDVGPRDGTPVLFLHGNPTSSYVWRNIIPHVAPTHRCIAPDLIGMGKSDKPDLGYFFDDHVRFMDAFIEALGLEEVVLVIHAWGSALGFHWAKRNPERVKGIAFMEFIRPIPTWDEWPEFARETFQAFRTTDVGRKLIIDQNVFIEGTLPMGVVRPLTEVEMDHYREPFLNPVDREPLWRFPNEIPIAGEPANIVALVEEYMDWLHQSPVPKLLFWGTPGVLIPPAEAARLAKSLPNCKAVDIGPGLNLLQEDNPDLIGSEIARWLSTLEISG
# Description: Binding affinities of HT7^D106A or HOB^D106A for chloroalkane (CA) substrates were determined by fluorescence polarization (FP, eq 1) measurements using a microplate reader (Spark20M, Tecan Group AG, Männedorf, Switzerland). The fluorescent substrates (10 nM) were titrated against different protein concentrations (0–250 μM) in activity buffer supplemented with 0.5 g/L bovine serum albumin (BSA). Assays were performed in black low-volume nonbinding 384-well plates (Corning Inc., Corning, NY) with a final volume of 20 μL. Obtained FP values were averaged and fitted to a single-site binding model (eq 2) to estimate Kd values for each fluorescent substrate. The FP value of each dye fully reacted with the native HT7 was used to improve fitting of the upper plateau of the curves by adding an extra data point at a protein concentration of 0.1 M. [drawing 1] 1 where FP is the fluorescence polarization, I∥ is the fluorescence intensity parallel to the excitation light polarization, I⊥ is the fluorescence intensity perpendicular to the excitation light polarization, and G is the grating factor (G = I∥/I⊥). [drawing 2] 2 where FPmin is the fluorescence polarization of the free fluorophore (lower plateau), FPmax is the maximal fluorescence polarization of fully bound fluorophore (upper plateau), Kd is the dissociation constant, and [protein] is the protein concentration.
# Free binding energies were calculated from Kd values according to eq 4: [drawing 4] 4 where ΔG is the free binding energy, R is the universal gas constant, T is the temperature, and Kd is the dissociation constant.
# [4] = target: T3, HaloTag7 (HT7) (Rhodococcus sp., UniProt P59336, A155T/A167V/A224E/C128F/C176G/D78G/E160K/E257K/G292T/H272N/K175M/K195N/L47V/L88M/N227D/P291S/S2A/S58T/T264A/V172T/Y273L/Y87F); assay: HT7 competitive labeling kinetics against CA-Alexa488; type: biochemical; conditions: HT7, nonfluorescent substrates, competition with CA-Alexa488, 37 °C
# T3 construct: made in house; host or cells: E. coli BL21(DE3)-pLysS
# T3 sequence (P59336 other isoform, or with tags, fused parts or gaps with the stated changes): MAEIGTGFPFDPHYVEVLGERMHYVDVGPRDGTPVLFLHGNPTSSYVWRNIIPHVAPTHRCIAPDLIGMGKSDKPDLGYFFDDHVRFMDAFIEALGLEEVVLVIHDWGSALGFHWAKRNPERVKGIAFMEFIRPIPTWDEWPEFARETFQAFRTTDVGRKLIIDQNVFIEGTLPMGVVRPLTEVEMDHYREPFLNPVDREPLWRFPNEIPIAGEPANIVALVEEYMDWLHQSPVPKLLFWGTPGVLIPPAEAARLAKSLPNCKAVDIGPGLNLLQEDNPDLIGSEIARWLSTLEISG
# Description: Competitive kinetics were measured by recording FP over time using a microplate reader (Spark20M, Tecan). The final concentrations of CA-Alexa488 (50 nM) and HT7 protein (200 nM) remained constant with varying concentrations of nonfluorescent substrates (0–1 μM) in activity buffer supplemented with 0.5 g/L BSA. Assays were performed in black nonbinding flat bottom 96-well plates with a final reaction volume of 200 μL. Labeling reactions were started by adding the HT7 protein to wells containing CA-Alexa488 and nonfluorescent substrates using an electronic 96-channel pipettor (Integra Bioscience Corp., Hudson, NH). The FP of free CA-Alexa488 was measured to obtain a baseline.
# as §1
# [5] = target: T3, HaloTag7 (HT7); assay: HT7 labeling kinetics via stopped flow (fluorescence anisotropy); type: biochemical; conditions: HT7, stopped flow, model 2
# Description: Labeling kinetics of HT7 with CA-TMR, CA-JF549, CA-CPY, CA-LIVE580, and CA-JF669 and labeling kinetics of HOB with CA-TMR were measured by recording fluorescence anisotropy changes over time using a BioLogic SFM-400 stopped-flow instrument (BioLogic Science Instruments, Claix, France) in a single-mixing configuration at 37 °C. HT7 protein and substrates in activity buffer were mixed in a 1:1 stoichiometry to reach a recordable speed for these fast reactions and to increase the information content of the traces. Concentrations were varied from 0.125 to 1 μM. The anisotropy of the free substrate was measured to obtain a baseline.
# Kinetic stopped-flow data were preprocessed using a custom R script.[36],[37] Recorded pretrigger time points were removed, and time points were adjusted to start at time zero. Values from replicates were averaged. The anisotropy of the free dye was calculated by averaging anisotropy values of the baseline measurements. Preprocessed data were fitted to a kinetic model (eqs 5 and 6) described by differential eqs 7–10 using the DynaFit software.[38] The anisotropy of the free dye and the mixing delay of the stopped-flow machine were set as fixed offset and delay parameters in DynaFit. It was assumed that the protein substrate complex and the reacted product are contributing equally to the anisotropy signal. […] Standard deviations (normal distribution verified) and confidence intervals of fitted parameters were estimated with the Monte Carlo method[39] with standard settings (N = 1000, 5% worst fits discarded). In the case of SNAP kinetics with BG-TMR, the substrate concentration was fitted by DynaFit to rule out quantification errors of the BG-quenched fluorophore. Accurate fitting of the concentration was ensured by including conditions in which protein is limiting and no maximum FP value was reached.
Compound,kapp (value ± standard deviation) [1],further results
"Nc1nc(OCc2ccccc2)c2nc[nH]c2n1 [BG, benzylguanine]",(1.87 ± 0.05) × 10^4 M^–1 s^–1,
CC(=O)NCc1ccc(COc2nc(N)nc3[nH]cnc23)cc1 [BG-Ac],(1.48 ± 0.05) × 10^4 M^–1 s^–1,
Nc1nc(OCc2ccc(CNC(=O)OC[C@@H]3[C@@H]4CCC#CCC[C@@H]43)cc2)c2nc[nH]c2n1 [BG-BCN],(3.88 ± 0.07) × 10^4 M^–1 s^–1,
CN(C)c1ccc2c(c1)C(C)(C)C1=CC(=[N+](C)C)C=CC1=C2c1cc(C(=O)NCc2ccc(COc3nc(N)nc4[nH]cnc34)cc2)ccc1C(=O)[O-] [BG-CPY],,kapp (value ± standard deviation) [2]: (2.17 ± 0.01) × 10^5 M^–1 s^–1
[N-]=[N+]=NCC(=O)NCc1ccc(COc2nc(N)nc3[nH]cnc23)cc1 [BG-N3],(3.70 ± 0.09) × 10^4 M^–1 s^–1,
Nc1nc(OCc2ccc(CNC(=O)C3CC4C=CC3C4)cc2)c2nc[nH]c2n1 (centres unmarked) [BG-Nor1],(7.34 ± 0.01) × 10^4 M^–1 s^–1,
[N-]=[N+]=Nc1ccc(C(=O)NCc2ccc(COc3nc(N)nc4[nH]cnc34)cc2)cc1 [BG-PhN3],(4.78 ± 0.09) × 10^4 M^–1 s^–1,
Nc1nc(OCc2ccc(CNC(=O)OC3C#CCCCCC3)cc2)c2nc[nH]c2n1 (centres unmarked) [BG-SCO],(3.75 ± 0.06) × 10^4 M^–1 s^–1,
Cc1nnc(-c2ccc(CC(=O)NCc3ccc(COc4nc(N)nc5[nH]cnc45)cc3)cc2)nn1 [BG-Tz],(3.94 ± 0.08) × 10^4 M^–1 s^–1,
C=Cc1ccc(C(=O)NCc2ccc(COc3nc(N)nc4[nH]cnc34)cc2)cc1 [BG-Vbn],(3.84 ± 0.07) × 10^4 M^–1 s^–1,
CN(C)c1ccc2c(-c3ccc(C(=O)NCCOCCOCCCCCCCl)cc3C(=O)[O-])c3ccc(=[N+](C)C)cc-3oc2c1 [CA-5-TMR],,Kd [3]: 39.4 µM
O=C(NCCOCCOCCCCCCCl)OC[C@@H]1[C@@H]2CCC#CCC[C@@H]21 [CA-BCN],,kapp (value ± standard deviation) [4]: (2.04 ± 0.03) × 10^5 M^–1 s^–1
C[Si]1(C)C2=CC(=[N+]3CCC3)C=CC2=C(c2c(F)c(C(=O)NCCOCCOCCCCCCCl)c(F)c(F)c2C(=O)[O-])c2ccc(N3CCC3)cc21 [CA-JF669],,k2 (± S.D.) [5]: 6.94 (± 0.47) s-1
[N-]=[N+]=NCC(=O)NCCOCCOCCCCCCCl [CA-N3],,kapp (value ± standard deviation) [4]: (6.00 ± 0.06) × 10^3 M^–1 s^–1
